Measured values published in PubChem BioAssay AID2060618 (Molecular Pharmacology Branch, DTP, NCI, 2025).
pIC50: −log10 of the molar value.

Test system: 454973-116-R2-J3-PDC spheroids, percent test/control viability
Test: Anticancer human tumor 454973-116-R2-J3-PDC patient-derived pancreatic carcinoma cell line growth inhibition [CLK]
Details: spheroids with HUVEC and MSC; for pIC50: curve of first compound; for viability, T/C: stronger effect = lower value; active means viability on the fitted dose curve at most 10% of control; inactive means the rest
In short: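 Patient-derived tumor cells grown as complex spheroids with HUVEC endothelial cells and mesenchymal stem cells, treated with drug combinations. Concentrations descend in half-log steps from near clinical Cmax, or from 10 microM if Cmax unknown.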

[1] = second compound 0.0316 µM, first compound 0.0316 µM
[2] = second compound 0.0316 µM, first compound 0.1 µM
[3] = second compound 0.0316 µM, first compound 0.316 µM
[4] = second compound 0.0316 µM, first compound 1 µM
[5] = second compound 0.0316 µM, first compound 3.16 µM
[6] = second compound 0.0316 µM, first compound 10 µM
[7] = second compound 0.1 µM, first compound 0.0316 µM
[8] = second compound 0.1 µM, first compound 0.1 µM
[9] = second compound 0.1 µM, first compound 0.316 µM
[10] = second compound 0.1 µM, first compound 1 µM
[11] = second compound 0.1 µM, first compound 3.16 µM
[12] = second compound 0.1 µM, first compound 10 µM
[13] = second compound 0.316 µM, first compound 0.0316 µM
[14] = second compound 0.316 µM, first compound 0.1 µM
[15] = second compound 0.316 µM, first compound 0.316 µM
[16] = second compound 0.316 µM, first compound 1 µM
[17] = second compound 0.316 µM, first compound 3.16 µM
[18] = second compound 0.316 µM, first compound 10 µM
[19] = second compound 1 µM, first compound 0.0316 µM
[20] = second compound 1 µM, first compound 0.1 µM
[21] = second compound 1 µM, first compound 0.316 µM
[22] = second compound 1 µM, first compound 1 µM
[23] = second compound 1 µM, first compound 3.16 µM
[24] = second compound 1 µM, first compound 10 µM
[25] = second compound 3.16 µM, first compound 0.0316 µM
[26] = second compound 3.16 µM, first compound 0.1 µM
[27] = second compound 3.16 µM, first compound 0.316 µM
[28] = second compound 3.16 µM, first compound 1 µM
[29] = second compound 3.16 µM, first compound 3.16 µM
[30] = second compound 3.16 µM, first compound 10 µM
[31] = second compound 10 µM, first compound 0.0316 µM
[32] = second compound 10 µM, first compound 0.1 µM
[33] = second compound 10 µM, first compound 0.316 µM
[34] = second compound 10 µM, first compound 1 µM
[35] = second compound 10 µM, first compound 3.16 µM
[36] = second compound 10 µM, first compound 10 µM
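Further: spheroids exposed to compounds for 7 days before readout.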

COc1cccc2c1C(=O)c1c(O)c3c(c(O)c1C2=O)CC(O)(C(=O)CO)CC3OC1CC(N)C(O)C(C)O1 (stereo unspecified) + CN1CCN(c2cc(C(=O)Nc3cc4cc(-c5cnn(C)c5)ccc4cn3)ccn2)CC1
inactive: viability, T/C [1] 40.8% | viability, T/C [2] 27.2% | viability, T/C [3] 21% | viability, T/C [7] 29.2% | viability, T/C [8] 26.5% | viability, T/C [9] 17.9%
> 7.50: pIC50 (second compound 0.0316 µM) | pIC50 (second compound 0.1 µM) | pIC50 (second compound 0.316 µM) | pIC50 (second compound 1 µM) | pIC50 (second compound 3.16 µM) | pIC50 (second compound 10 µM)
active: viability, T/C [4] 8.81% | viability, T/C [5] 0.25% | viability, T/C [6] 0.19% | viability, T/C [10] 3.51% | viability, T/C [11] 0.16% | viability, T/C [12] 0.16% | viability, T/C [13] 1.16% | viability, T/C [14] 1.16% | viability, T/C [15] 1.46% | viability, T/C [16] 0.14% | viability, T/C [17] 0.33% | viability, T/C [18] 0.12% | viability, T/C [19] 0.11% | viability, T/C [20] 0.15% | viability, T/C [21] 1.47% | viability, T/C [22] 0.11% | viability, T/C [23] 0.12% | viability, T/C [24] 0.18% | viability, T/C [25] 0.08% | viability, T/C [26] 0.45% | viability, T/C [27] 0.15% | viability, T/C [28] 0.15% | viability, T/C [29] 0.17% | viability, T/C [30] 0.1% | viability, T/C [31] 0.12% | viability, T/C [32] 0.43% | viability, T/C [33] 0.13% | viability, T/C [34] 0.12% | viability, T/C [35] 0.14% | viability, T/C [36] 0.11%

CCCS(=O)(=O)Nc1ccc(F)c(C(=O)c2c[nH]c3ncc(-c4ccc(Cl)cc4)cc23)c1F + CNC(=O)c1ccc(Nc2nc(OC3CCCC3)c3c(-c4ccc5nc(C)oc5c4)c[nH]c3n2)c(OC)c1
inactive: viability, T/C [1] 96% | viability, T/C [2] 107% | viability, T/C [3] 102% | viability, T/C [4] 126% | viability, T/C [5] 107% | viability, T/C [6] 23.8% | viability, T/C [7] 97.5% | viability, T/C [8] 106% | viability, T/C [9] 111% | viability, T/C [10] 111% | viability, T/C [11] 109% | viability, T/C [12] 27.9% | viability, T/C [13] 48.2% | viability, T/C [14] 45.2% | viability, T/C [15] 45.5% | viability, T/C [16] 51.2% | viability, T/C [17] 53% | viability, T/C [18] 14.4% | viability, T/C [19] 32.2% | viability, T/C [20] 33.6% | viability, T/C [21] 33% | viability, T/C [22] 37% | viability, T/C [23] 32% | viability, T/C [24] 12.9% | viability, T/C [25] 27.9% | viability, T/C [26] 27.3% | viability, T/C [27] 31.6% | viability, T/C [28] 36.7% | viability, T/C [29] 29.7% | viability, T/C [30] 10.4% | viability, T/C [31] 26.2% | viability, T/C [32] 23.9% | viability, T/C [33] 25.9% | viability, T/C [34] 29.4% | viability, T/C [35] 31.9% | viability, T/C [36] 9.04%
5.14: pIC50 (second compound 0.1 µM)
7.50: pIC50 (second compound 0.316 µM)
5.16: pIC50 (second compound 0.0316 µM)
> 7.50: pIC50 (second compound 1 µM) | pIC50 (second compound 3.16 µM) | pIC50 (second compound 10 µM)

COC1C=CCC(C)C(C)S(=O)(=O)NC(=O)c2ccc3c(c2)N(CC2CCC21)CC1(CCCc2cc(Cl)ccc21)CO3 (stereo unspecified) + CNC(=O)c1ccc(Nc2nc(OC3CCCC3)c3c(-c4ccc5nc(C)oc5c4)c[nH]c3n2)c(OC)c1
5.27: pIC50 (second compound 0.0316 µM)
5.34: pIC50 (second compound 0.1 µM)
> 7.50: pIC50 (second compound 0.316 µM) | pIC50 (second compound 1 µM) | pIC50 (second compound 3.16 µM) | pIC50 (second compound 10 µM)
inactive: viability, T/C [1] 99.4% | viability, T/C [2] 104% | viability, T/C [3] 93.9% | viability, T/C [4] 95% | viability, T/C [5] 86.8% | viability, T/C [7] 91.8% | viability, T/C [8] 98.8% | viability, T/C [9] 92.4% | viability, T/C [10] 84.3% | viability, T/C [11] 70.9% | viability, T/C [13] 48.2% | viability, T/C [14] 53.7% | viability, T/C [15] 42% | viability, T/C [16] 46.1% | viability, T/C [17] 46.3% | viability, T/C [18] 11.5% | viability, T/C [19] 30.2% | viability, T/C [20] 23.3% | viability, T/C [21] 14.2% | viability, T/C [22] 14.4% | viability, T/C [23] 17.6% | viability, T/C [24] 14.9% | viability, T/C [25] 24.1% | viability, T/C [26] 17.4% | viability, T/C [27] 11.2% | viability, T/C [28] 11.9% | viability, T/C [29] 13.9% | viability, T/C [30] 11.8% | viability, T/C [31] 23.7% | viability, T/C [32] 21.5% | viability, T/C [33] 12.1% | viability, T/C [34] 9.9%
active: viability, T/C [6] 6.26% | viability, T/C [12] 8.61% | viability, T/C [35] 8.86% | viability, T/C [36] 9.25%
